Activity and Kb data for four molecules are collected here from ChEMBL document CHEMBL2029300, “Discovery of a Potent Retinoid X Receptor Antagonist Structurally Closely Related to RXR Agonist NEt-3IB” (ACS Med Chem Lett, 2011).

The target in assay [1] is T1, Retinoic acid receptor RXR-alpha (Homo sapiens) (UniProt P19793).
T1 sequence (whole entry): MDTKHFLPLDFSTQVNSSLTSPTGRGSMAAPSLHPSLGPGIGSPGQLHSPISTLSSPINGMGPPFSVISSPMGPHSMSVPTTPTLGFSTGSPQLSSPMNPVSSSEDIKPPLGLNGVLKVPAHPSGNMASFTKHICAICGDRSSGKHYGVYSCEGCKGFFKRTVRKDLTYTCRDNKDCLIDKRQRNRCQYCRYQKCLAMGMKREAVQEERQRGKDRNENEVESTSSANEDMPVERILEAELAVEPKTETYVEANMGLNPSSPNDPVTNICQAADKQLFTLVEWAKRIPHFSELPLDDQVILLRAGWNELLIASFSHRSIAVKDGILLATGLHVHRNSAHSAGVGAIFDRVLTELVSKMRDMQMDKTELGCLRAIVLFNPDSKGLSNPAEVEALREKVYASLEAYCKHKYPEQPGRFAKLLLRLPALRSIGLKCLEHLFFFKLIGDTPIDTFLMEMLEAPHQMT
Description: (§1) Antagonist activity at RXRalpha expressed in COS1 cells assessed as inhibition of NEt-TMN-induced luciferase activity after 18 hrs by reporter gene assay relative to LGD1069. Type of assay: functional, cell-based. To be noted: COS-1. (In a reporter assay the amount or activity of a reporter protein is the signal.)

Assay [2] concerns the target T2, Retinoic acid receptor RXR-alpha (Homo sapiens, UniProt P19793).
T2 sequence (P19793 whole entry): T1 sequence (whole entry)
The assay is described as §1. Type of assay: functional, cell-based, COS-1.

Assay [3] has as its target T2, Retinoic acid receptor RXR-alpha. Put plainly: Antagonist activity at RXRalpha expressed in COS1 cells assessed as inhibition of NEt-3IP-induced luciferase activity after 18 hrs by reporter gene assay relative to LGD1069. In kind it is functional, cell-based, COS-1.

SMILES strings stand for the structures. Active and inactive are the calls of the source. The calls are words filed in the database; no cut-off is given here.

For the molecule `CCN(c1ccc(C(=O)O)cn1)c1cc(OCC(C)C)c(C(C)C)cc1Nc1ccccc1`, the outcome in assay [1] was Active.
Turning to `CCN(c1ccc(C(=O)O)cn1)c1cc(OCC(C)C)c(C(C)C)cc1/C=C/c1ccccc1`, the Kb (commonly the affinity of an antagonist, worked out from how it opposes an agonist) came out at 5.89 nM in assay [2] and 5.5 nM in assay [3]. Moreover, the result in assay [1] was Active.
As to `CCN(c1ccc(C(=O)O)cn1)c1cc(OCC(C)C)c(C(C)C)cc1-c1ccccc1`, in assay [1], the result was inactive.
On to `CCCCCCOc1cc2c(cc1N(C)c1ncc(C(=O)O)cn1)C(C)(C)CCC2(C)C`, for which the antagonist dissociation constant (Kb) in assay [2] stood at 77.6 nM. Besides, the result in assay [1] was Active.
